Laboratory results: patent publication US20050267029A1, “Compounds which modulate amyloidogenesis and methods for their identification and use” (priority 2004, published 2005)
Residue numbers refer to the chain shown, from its start. Where two headings read alike, the source gives them in different places. Square brackets hold non-standard residues; d marks the D form. Ends that are not written are not given here.

Tests used:
IAPP = target: T1, IAPP (Homo sapiens, UniProt P10997); settings: cited from earlier work
T1 construct: human islet amyloid polypeptide, a major component of amyloid deposits found in the pancreas
T1 sequence (P10997 34-70 limits assumed): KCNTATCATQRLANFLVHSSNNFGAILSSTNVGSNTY

J774 cells = assay: HDL-SAA binding/uptake by J774 cells (western blot); type: cell-based, murine; settings: 50 μM
J774A.1 cells [1] = assay: Cell culture amyloidogenesis, amyloid detected by Congo Red (CR) staining; type: cell-based, murine
Experimental: The murine monocytic cell line J774A.1 (American Type Culture Collection, Manassas, Va.) was cultured in RPMI (Sigma) medium which contained 25 mM HEPES, 15% fetal bovine serum (FBS) and 50 μg/ml penicillin-streptomycin, at 37° C., 5% CO2. The cell stocks were passaged every four days, and the medium replaced every other day. Cells were seeded at a minimal density in 8-well chamber slides (Lab-Tek®, Nalge Nunc International, Naperville, Ill.) in 350 μl medium/well and allowed to reach about 80-90% confluence (3 days), about 2.2×10^5 cells per well. […] At the end of the treatment period, the cells were either stained with Congo red to visualize the amyloid deposits, or the cells were dissolved in 1% NaOH and assayed for amyloid fibrils by thioflavin-T (Th-T) fluorescence as described by LeVine (Methods Enzymol. 1999 309:274-284). […]
Congo Red (CR) staining for amyloid was performed on cells that were rinsed with PBS, fixed for 10 minutes in 70% ethanol, and then stained for 45 minutes with Congo red prepared in alkaline 80% ethanol, NaCl saturated solution. […] Quantitation of amyloid was performed by Th-T fluorescence as described by LeVine (Methods Enzymol. 1999 309:274-284). Fluorescence spectra of Th-T were acquired at 25° C. with a Spectra Max Gemini 96-well plate reader. […] Control spectra of Th-T and cell extract alone were determined. […]

J774A.1 cells [2] = settings: for Effect on amyloidogenesis / amyloid deposition in cell culture (in words): increasing concentrations of test agent
Experimental: AA-amyloid deposits were detected by histochemical staining with Alcian blue and direct quantitation by Th-T fluorescence.
The ability of a number of potential anti-amyloid compounds to modulate amyloid formation in this cell culture system was tested. To determine the effects of these potential anti-amyloid compounds, cell culture amyloidogenesis was induced in the presence of increasing concentrations of the test agents. Amyloid loads were quantified by Th-T fluorescence.
The murine monocytic cell line J774A.1 (American Type Culture Collection, Manassas, Va.) was cultured in RPMI (Sigma) medium which contained 25 mM HEPES, 15% fetal bovine serum (FBS) and 50 μg/ml penicillin-streptomycin, at 37° C., 5% CO2. The cell stocks were passaged every four days, and the medium replaced every other day. Cells were seeded at a minimal density in 8-well chamber slides (Lab-Tek®, Nalge Nunc International, Naperville, Ill.) in 350 μl medium/well and allowed to reach about 80-90% confluence (3 days), about 2.2×10^5 cells per well. To induce AA-amyloidogenesis, cells were treated for 24 hours with 30 μg of AEF in the culture medium, then the medium was removed and the cells rinsed with fresh medium. To these cells 350 μl of medium was added containing either 0.3 mg/ml HDL-SAA, HDL, 0.05 mg/ml SAA1.1 or SAA2.1, replenished every two days for 7 days. At the end of the treatment period, the cells were either stained with Congo red to visualize the amyloid deposits, or the cells were dissolved in 1% NaOH and assayed for amyloid fibrils by thioflavin-T (Th-T) fluorescence as described by LeVine (Methods Enzymol. 1999 309:274-284).

Aβ1-40 = Aβ1-40 (Homo sapiens, UniProt P05067); settings: 100 μM, cell-free system; cited from earlier work
Aβ1-40, sequence (P05067 672-711): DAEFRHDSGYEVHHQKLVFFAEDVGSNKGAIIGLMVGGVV

FLVHSS [residues 15-20 of human islet amyloid polypeptide]
Effect on beta-sheet transition and fibril formation of human islet amyloid polypeptide (IAPP): strong enhancers of beta-sheet transition and fibril formation

heparin [reference compound]
Effect on HDL-SAA binding to J774 cells (J774 cells): prevented HDL-SAA binding to cells

LANFLV [residues 12-17 of human islet amyloid polypeptide]
Effect on beta-sheet transition and fibril formation of human islet amyloid polypeptide (IAPP): strong enhancers of beta-sheet transition and fibril formation

ADQEANRHGRSGKDPNYYRPPGLPAKY ([dA][dD][dQ][dE][dA][dN][dR][dH]G[dR][dS]G[dK][dD][dP][dN][dY][dY][dR][dP][dP]G[dL][dP][dA][dK][dY]) [D-27mer]
Formation of CR-detectable amyloid (J774A.1 cells [1]; 20 μM, co-incubated with HDL-SAA): prevented the formation of any CR-detectable amyloid

PLPAQGKPGPDHYARNDSYAKNRYERG (OTHER INFORMATION: Synthetic) [SEQ ID NO:8, reference compound]
Effect on amyloidogenesis / amyloid deposition in cell culture (in words) (J774A.1 cells [2]): complete loss of inhibitory activity

ADQEANRHGRSGKDPNYYRPPGLPAKY [27-mer]
Effect on HDL-SAA binding to J774 cells (J774 cells): did not interfere with HDL-SAA binding to cells | IC50 (J774A.1 cells [2]): 0.02 µM | Fold less than the SAA1.1 concentration used to generate AA-amyloid (J774A.1 cells [2]; 70 nM versus 4.2 μM SAA1.1): about 60 fold | Fold less peptide needed than the IAPP peptides (100 μM) for similar inhibition (J774A.1 cells [2]; 70 nM versus 100 μM): 1400 fold | IC50 fold lower than that for PVS (J774A.1 cells [2]; 27-mer versus PVS): 25 fold | Concentration achieving a similar level of inhibition (80 to 85%) of amyloid load (J774A.1 cells [2]; SAA1.1 concentration 4.2 μM): 70 nM

polyvinylsulfonate [PVS, reference compound]
Effect on HDL-SAA binding to J774 cells (J774 cells): prevented HDL-SAA binding to J774 cells | 100% inhibition of amyloidogenesis (IC100) (J774A.1 cells [2]; Th-T fluorescence): 9 µM | IC50 (J774A.1 cells [2]; read-out: 50% inhibition of amyloidogenesis (IC50), Th-T fluorescence, test agent present throughout HDL-SAA treatments): 0.5 µM

KLVFF [Aβ peptide (residues 16-20)]
Effect on Aβ1-40 fibril assembly (Aβ1-40): prevent fibril assembly

ANRHGRSGKNPNYYRPPGLPAKY (ANRHGRSGKNPNYYRPPGLPAKY-NH2) [23-mer basic]
Inhibition of CR-detectable amyloid (J774A.1 cells [1]; 2 μM): completely inhibit CR-detectable amyloid

WRAYTDMKEAGWKDGDKYFHARGNYDAAQRGPG [33-mer]
Effect on HDL-SAA binding to J774 cells (J774 cells): completely blocked HDL-SAA binding/uptake | Enhancement of amyloid formation (J774A.1 cells [2]; AEF preincubation not used): greater than 50% | Enhancement of amyloid formation (J774A.1 cells [2]; cells preincubated with AEF): up to 180% | Effect on amyloidogenesis / amyloid deposition in cell culture (in words) (J774A.1 cells [2]): increasing amyloid load in culture

ADQAANEWGRSGKDPNHFRPAGLPEKY [SEQ ID NO:9]
Effect on amyloidogenesis / amyloid deposition in cell culture (in words) (J774A.1 cells [2]): equivalent inhibitory activity

ADQEANAAGASGKDPNYYRPPGLPAKY (OTHER INFORMATION: Synthetic) [27-mer; R83A/H84A/R86A]
Effect on amyloidogenesis / amyloid deposition in cell culture (in words) (J774A.1 cells [2]): complete loss of inhibitory activity

chondroitin sulfate [reference compound]
Effect on amyloidogenesis / amyloid deposition in cell culture (in words) (J774A.1 cells [2]): unable to affect amyloid deposition at any concentration tested

B1: SAA1.1: purified delipidated murine serum amyloid A isoform 1.1 (protein, UniProt P05366 20-122, looked up)
Serum amyloid A-1 protein: GFFSFVHEAFQGAGDMWRAYTDMKEANWKNSDKYFHARGNYDAAQRGPGGVWAAEKISDGREAFQEFFGRGHEDTIADQEANRHGRSGKDPNYYRPPGLPDKY
Amyloid produced, % of HDL-SAA (J774A.1 cells [2]; purified delipidated isoform 50 μg/ml with AEF): 9%

B2: SAA2.1: purified delipidated murine serum amyloid A isoform 2.1 (protein, UniProt P05367 20-122, looked up)
Serum amyloid A-2 protein: B1 Serum amyloid A-1 protein with V6I, H7G, N27G, N30D, S31G, G60A, A63S, I76M, D101A
Amyloid produced from SAA form (in words) (J774A.1 cells [2]; with AEF, CR stain or Th-T fluorescence): no amyloid was detected
